Test results published in paper PMC4910235, “Selenophene and thiophene-core estrogen receptor ligands that inhibit motility and development of parasitic stages of Haemonchus contortus” (Parasites & Vectors, 2016).
Where two headings read alike, the source gives them in different places.

Key:
L4 stage of H. contortus = test: Scanning electron microscopy of treated L4s; assay type: cell-based, Haemonchus contortus; settings: 100 μM, 24 h
Description: (§1) SEM was used to assess whether compounds that reduced motility by ≥ 70 % caused structural damage to the larval stages. The xL3s and L4s were cultivated as described previously. Compounds were diluted to a final concentration of 100 μM in LB*, and 50 μl were transferred to wells of a 96-well microculture plate; six wells were used for each treatment and for the negative control which contained LB* and 1 % methanol (AR1115-P2.5 L, RCI; Labscan Limited). The xL3s and L4s were resuspended in LB* at a density of ~6,000 per ml, and 50 μl were transferred into individual wells. Compounds were incubated with the larvae for 24 h at 38 °C and 10 % CO2. Following incubation, for each treatment, the larvae from each of the six wells were pooled into 1.5 ml Eppendorf tubes, washed 3 times in 0.9 % saline at 9,000 g and resuspended in 1 ml of phosphate-buffered saline (PBS). Subsequently, the larvae were fixed in 2.5 % glutaraldehyde in PBS for 2 h at room temperature, rinsed three times in PBS for 15 min, and then post-fixed in 1 % osmium tetroxide for 2 h at room temperature. Fixed larvae were rinsed again 3 times in PBS for 15 min. Then, aliquots of concentrated larvae (200 μl) were incubated on polyethyleneimine (PEI)-coated glass coverslips (pre-prepared by smearing 22 mm square glass coverslips with a 0.1 % solution of PEI and dried by heat under a cool flame). Following this incubation, the excess supernatant was removed, and the coverslips with adhered nematodes were dehydrated in increasing concentrations of ethanol (10, 30, 50, 70, 90 and 100 %) in water for 30 min. The coverslips were dried in a critical point dryer (EM CPD030, Leica, Wetzlar, Germany) and mounted on to aluminium stubs (25 mm) with double-sided carbon tabs. The coverslips were then coated with gold using a Xenosput sputter coater (Dynavac, Australia). The larvae on the coverslips were imaged using a field-emission scanning electron microscope (XL30 Philips, Netherlands) at 2.0 kV using a spot size of two; 12 representative images were taken of each sample.

[1] = tested on: development of xL3s to L4s of H. contortus; test: L4 development assay (xL3 to L4); assay type: cell-based; settings: Haemonchus contortus, 168 h, read-out: L4 development (IC50s in μM)
Description: The selenophene and thiophene-core ligands (n = 74) (Additional file 1) were screened at a concentration of 20 μM on exsheathed third-stage larvae (xL3s) of H. contortus in 96-well microculture plates (cat. no. 3635; Corning 3650, Life Sciences, Corning, USA) using relevant control compounds (i.e. moxidectin and monepantel), as described previously. In brief, compounds were dissolved to a stock concentration of 10 mM in either dimethyl sulfoxide (DMSO) or methanol (Sigma-Adrich Scientific, St. Louis, USA). These ligands were then individually diluted to the final concentration of 20 μM using Luria Bertani medium (LB) supplemented with 100 IU/ml of penicillin, 100 μg/ml of streptomycin and 2.5 μg/ml of amphotericin (LB*). Compounds were dispensed (in triplicate) into the wells of a 96-well microculture plate using a multichannel pipette. In addition, the negative controls (LB*, LB* + 0.5 % solvent; six wells each), and positive controls (20 μM of monepantel; Zolvix, Novartis Animal Health, Basel, Switzerland and 20 μM of moxidectin; Cydectin, Virbac, Carros, France; triplicate wells) and xL3s (~300/well) were dispensed into wells of the plate using an automated multichannel pipette (Viaflo Assist/II, Integra Biosciences, Zizers, Switzerland). Following a 72 h incubation at 38 °C and 10 % CO2, a video recording (5 s) was taken of each well of the 96-well microculture plate (containing xL3s) using a greyscale camera (Rolera Bolt CMOS, Qimaging Scientific, Surrey, Canada) and a motorised X-Y axis stage (BioPoint 2, Ludl Electronics Products, Hawthorne, USA). Individual videos were processed to calculate a motility index (MI) using an algorithm described previously. MIs were normalised to the negative and positive controls (to remove plate-to-plate variation) using the program Prism (v.6 GraphPad Software, USA). Z’-scores were calculated to validate the performance of the screening assay; reliable assays achieve Z’-scores of between 0.5 and 1 [28]. A compound was recorded as having an activity if it reduced xL3 motility by ≥ 70 % following incubation for 72 h. […] Compounds that reduced the motility of xL3s were also tested for their ability to inhibit the motility of L4s (same protocol as for xL3s) and/or to affect the development of xL3s to L4s. Following the measurement of L4 motility, larvae were re-incubated for 4 more days and fixed with 1 % iodine (50 μl). Then, L4 development was assessed based on the presence of a well-developed mouth/pharynx using a light microscope and expressed as a percentage of the total number of larvae examined (n = 30).
All assays (to assess xL3 motility, L4 development and L4 motility) were performed in triplicate, three times, on separate days.

[2] = tested on: xL3 stage of H. contortus; test: Scanning electron microscopy of treated xL3s; assay type: cell-based, Haemonchus contortus; settings: 100 μM, 24 h
Description: as §1

IC50 ([1]; 7 days) [µM] | SMILES | cuticle damage of L4s by SEM (L4 stage of H. contortus) | structural damage of xL3s by SEM [2] | IC50 [1] [µM]
0.4 | C[C@](C#N)(COc1cc(C#N)ccc1C(F)(F)F)NC(=O)c1ccc(SC(F)(F)F)cc1 [Monepantel, reference compound] | cuticle damage |  | 
13.7 | Oc1ccc(-c2cscc2-c2ccc(O)cc2Cl)c(Cl)c1 [MJ-17] | distinct damage | no structural damage | 
12.3 | CO/N=C1\C[C@]2(C[C@@H]3C[C@@H](C/C=C(\C)C[C@@H](C)/C=C/C=C4\CO[C@@H]5[C@H](O)C(C)=C[C@@H](C(=O)O3)[C@]45O)O2)O[C@H](/C(C)=C/C(C)C)[C@H]1C [Moxidectin, reference compound] | did not induce any cuticle damage |  | 
10.5 | Cc1cc(O)ccc1-c1ccc(-c2ccc(O)cc2F)s1 [MJ-22] | distinct damage | no structural damage | 
 | Oc1ccc(-c2ccc(-c3ccc(O)cc3Cl)[se]2)c(Cl)c1 [WZY-2] | distinct damage | no structural damage | 12.2
